Legend:
Assay type in all cases: in vivo
[1] = system: barnyardgrass (Echinochloa crus-galli); assay: Test Example 6: foliar spray, herbicidal activity index; conditions: 4 days after application, index 0-10
Protocol: (§1) A plastic pot having longer side of 27 cm, shorter side of 19 cm and depth of 7 cm was filled with soil and then seeded with large crabgrass (Digitaria sanguinalis) and giant foxtail (Setaria faberi). Nine days after, barnyardgrass (Echinochloa crus-galli) was seeded therein and grown for 15 days in a greenhouse. Further, a plastic pot having longer side of 16.5 cm, shorter side of 12 cm and depth of 7 cm was filled with soil and then seeded with wild oat (Avena fatua), and grown for 18 days in a greenhouse. Then, each of the present compound 1-67 and A was formulated into an emulsifiable concentrate according to Formulation Example 2 and then diluted to the prescribed amount with water containing a spreading agent and the dilution was uniformly sprayed over the foliage of the test plants with a sprayer at a rate of 1000liters per hectare. After the application, the test plants were grown in the greenhouse for 4 days, and the herbicidal activity was examined. (In the Table 12, the test plants are shown as follows.
(§2) Barnyardgrass: B, Large crabgrass: LC, Giant foxtail: GF, Wild oat: W

[2] = system: giant foxtail (Setaria faberi); assay: as above; conditions: 4 days after application, index 0-10
Protocol: as §1, §2

[3] = system: large crabgrass (Digitaria sanguinalis); assay: as above; conditions: 4 days after application, index 0-10
Protocol: as §1, §2

wild oat (Avena fatua) [4] = assay: as above; conditions: 4 days after application, index 0-10
Protocol: as §1, §2

[5] = system: barnyardgrass (Echinochloa crus-galli); assay: Test Example 7: foliar spray, herbicidal activity index; conditions: 4 days after application, index 0-10
Protocol: as §1, with “compound 1-45” for “compound 1-67”, “and B” for “and A”, “of 1000 liters” for “of 1000liters”, “Table 13,” for “Table 12,”
as §2

[6] = system: large crabgrass (Digitaria sanguinalis); assay: as above; conditions: 4 days after application, index 0-10
Protocol: as §1, with “compound 1-45” for “compound 1-67”, “and B” for “and A”, “of 1000 liters” for “of 1000liters”, “Table 13,” for “Table 12,”
as §2

[7] = system: giant foxtail (Setaria faberi); assay: as above; conditions: 4 days after application, index 0-10
Protocol: as §1, with “compound 1-45” for “compound 1-67”, “and B” for “and A”, “of 1000 liters” for “of 1000liters”, “Table 13,” for “Table 12,”
as §2

wild oat (Avena fatua) [8] = assay: as above; conditions: 4 days after application, index 0-10
Protocol: as §1, with “compound 1-45” for “compound 1-67”, “and B” for “and A”, “of 1000 liters” for “of 1000liters”, “Table 13,” for “Table 12,”
as §2

[9] = system: large crabgrass (Digitaria sanguinalis); assay: Test Example 8: foliar spray, herbicidal activity index; set-up: key: “0” means that there was no or little difference in the degree of germination or growth between the treated and the untreated tested plants at the time of examination; “10” means that the test plants died complete or their germination or growth was completely inhibited; conditions: foliar spray 373 liters per hectare, examined after 4 days, index 0-10
Protocol: (§3) A plastic pot having longer side of 16.5 cm, shorter side of 12 cm and depth of 7 cm was filled with soil and then seeded with large crabgrass (Digitaria sanguinalis), giant foxtail (Setaria faberi) and johnsongrass (Sorghum halepense). These test plants were grown in a greenhouse for 25 days. Then, each of the present compound 2-52 and C was formulated into an emulsifiable concentrate according to Formulation Example 2 and then diluted to the prescribed amount with water containing a spreading agent and the dilution was uniformly sprayed over the foliage of the test plants with a sprayer at a rate of 373 liters per hectare. After the application, the test plants were grown in the greenhouse for 4 days, and the herbicidal activity was examined. (In the Table 14, the test plants are shown as follows.
(§4) Large crabgrass: LC, Giant foxtail: GF, Johnsongrass: J

[10] = system: johnsongrass (Sorghum halepense); assay: as above; set-up: key: “0” means that there was no or little difference in the degree of germination or growth between the treated and the untreated tested plants at the time of examination; “10” means that the test plants died complete or their germination or growth was completely inhibited; conditions: foliar spray 373 liters per hectare, examined after 4 days, index 0-10
Protocol: as §3, §4

[11] = system: giant foxtail (Setaria faberi); assay: as above; set-up: key: “0” means that there was no or little difference in the degree of germination or growth between the treated and the untreated tested plants at the time of examination; “10” means that the test plants died complete or their germination or growth was completely inhibited; conditions: foliar spray 373 liters per hectare, examined after 4 days, index 0-10
Protocol: as §3, §4

## COc1cc(OC)nc(Nc2cc(-n3c(=O)cc(C(F)(F)F)n(C)c3=O)c(F)cc2Cl)n1 [A, reference compound]
[1]; dosage 32 g/ha
  Herbicidal activity B: 4
[1]; dosage 125 g/ha
  Herbicidal activity B: 4
[2]; dosage 32 g/ha
  Herbicidal activity GF: 4
[2]; dosage 125 g/ha
  Herbicidal activity GF: 5
[3]; dosage 32 g/ha
  Herbicidal activity LC: 6
[3]; dosage 125 g/ha
  Herbicidal activity LC: 8
Wild oat (Avena fatua) [4]; dosage 32 g/ha
  Herbicidal activity W: 2
Wild oat (Avena fatua) [4]; dosage 125 g/ha
  Herbicidal activity W: 3

## COc1nc(OC)nc(Oc2cc(-n3c(=O)cc(C(F)(F)F)n(C)c3=O)c(F)cc2Cl)n1 [B, reference compound]
[5]; dosage 32 g/ha
  Herbicidal activity B: 6
[5]; dosage 125 g/ha
  Herbicidal activity B: 8
[6]; dosage 32 g/ha
  Herbicidal activity LC: 8
[6]; dosage 125 g/ha
  Herbicidal activity LC: 8
[7]; dosage 32 g/ha
  Herbicidal activity GF: 6
[7]; dosage 125 g/ha
  Herbicidal activity GF: 8
Wild oat (Avena fatua) [8]; dosage 32 g/ha
  Herbicidal activity W: 6
Wild oat (Avena fatua) [8]; dosage 125 g/ha
  Herbicidal activity W: 9

## CC(=O)Nc1cccnc1Oc1cc(-n2c(=O)cc(C(F)(F)F)n(N)c2=O)c(F)cc1Cl [C, reference compound]
[9]; dosage 32 g/ha
  Herbicidal activity LC: 7
[9]; dosage 125 g/ha
  Herbicidal activity LC: 9
[10]; dosage 32 g/ha
  Herbicidal activity J: 8
[10]; dosage 125 g/ha
  Herbicidal activity J: 10
[11]; dosage 32 g/ha
  Herbicidal activity GF: 6
[11]; dosage 125 g/ha
  Herbicidal activity GF: 9
